These results are taken from PubChem BioAssay AID449764 (Southern Research Specialized Biocontainment Screening …, 2010).

This test relates to Mycobacterium tuberculosis H37Rv growth inhibition, no glycerol. As to the kind of experiment: Confirmatory growth inhibition assay, Mycobacterium tuberculosis H37Rv, absence of glycerol (AID 449764).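 As to all read-outs here: growth read after 7 days of incubation.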 To be noted: for IC90: measured here: IC90 growth inhibition.

In the case of `O=C(OCC(=O)N1CCC(c2ccccc2)=N1)c1ccc(Cl)s1`, the IC50 was 97.6 µM and the IC90 is over 100 µM. As to `O=C(CCS(=O)(=O)c1ccc(F)cc1)Nc1nc(-c2ccccn2)cs1`, the concentration for half-maximal inhibition (IC50) was 12.8 µM and the IC90 worked out at 29.1 µM.

Regarding `Cc1cc2nc(C3CCN(CC4COc5ccccc5O4)CC3)[nH]c2cc1C` (centres undefined), the IC50 is 17.8 µM and the IC90 was found to be 28.7 µM.

Regarding `COC(=O)COc1ccc(-c2nn(C)c(=O)c3ccccc23)cc1`, the IC50 is 13.1 µM and the IC90 came out at 58.5 µM. In the same order, the values of `CCCOC(=O)c1ccc(-c2ccc(C=O)o2)cc1` are 21.1 µM and over 100 µM. In the same order, the values of `COc1cc(OC)cc(-c2cc3nc(C)c(CCC(=O)NC(C)CCc4ccco4)c(C)n3n2)c1` (centres undefined) are 53.2 µM and 90.5 µM. For the molecule `N#CC(C#N)=C(N)CSc1cccc[n+]1[O-]`, the IC50 was 43.6 µM and the IC90 turned out to be 49 µM. As for `Nc1c(C(=O)O)cnc2c(-c3ccc(Cl)cc3)cnn12`, the IC50 was 64 µM and the IC90 amounted to 99.8 µM. In the same order, the values of `C/C(=N/NC(=O)c1ccccn1)c1c[nH]c2ccccc12` are 10.6 µM and 21.4 µM. For `CC(C)(C)C1CCc2c(sc3nc(SCC(N)=O)nc(N)c23)C1` (centres undefined), in that order: 22.1 µM and 33.5 µM. On to `Cc1nn(-c2ccccc2)c(N)c1N=Nc1ccc(Cl)cc1`, for which the 50% inhibitory concentration (IC50) was 52.1 µM and the IC90 is over 100 µM. Regarding `CCOc1ccc2nc(N/C(N)=N/C(=S)Nc3cccc(C)c3)nc(C)c2c1`, the IC50 is 36 µM and the IC90 was over 100 µM.

For `Cc1ccc2c(c1)c1c3n2CCN=C3CCC1`, the 50% inhibitory concentration (IC50) is 10.5 µM and the IC90 was 16 µM. As to `CCCCCCCCn1sccc1=O`, the IC50 is 2.06 µM and the IC90 was determined as 2.83 µM.

For `COc1ccccc1/C=C/C(=O)Nc1ccc(S(=O)(=O)Nc2cc(C)on2)cc1`, the IC50 was 28.5 µM and the IC90 turned out to be 57.1 µM.

`COc1cccc(-c2cnc(NCc3cc(Cl)ccc3O)n2C)c1`: the IC50 was 21.1 µM and the IC90 is 23.4 µM. Consider `CCOC(=O)c1nn(-c2ccc(C)cc2)c2nc(Nc3ccccc3)cc(=O)n12`, for which the IC50 is 12 µM and the IC90 was found to be 13.6 µM. `COc1ccc(-c2cc(-c3ccc(OC)cc3)[nH]n2)cc1` yielded an IC90 of over 50 µM. Regarding `CCCSc1nnc(Sc2nnnn2-c2ccccc2)s1`, the IC50 is 22.5 µM and the IC90 is 38.8 µM. For `COc1ccc(C2CC(c3cccs3)=Nc3ccccc3S2)cc1` (centres undefined), in that order: 41.9 µM and 50.9 µM. Take `O=C(OCc1ccccc1)/C(=C(\O)c1ccccc1Br)c1ccc(-c2ccccc2)cn1`: the IC50 is 35.4 µM and the concentration for an effect of 90% (IC90) amounted to 49.3 µM.

Consider `COc1cc2cc(C(c3nnnn3C(C)(C)C)N3CCc4ccccc43)c(=O)[nH]c2cc1OC` (centres undefined), for which the IC90 was over 100 µM.

For the molecule `CCC(C)NC(=O)c1cn(CC)c2cc(N3CCN(C(=O)c4ccco4)CC3)c(F)cc2c1=O` (centres undefined), the IC50 was 23.5 µM and the IC90 worked out at 29.7 µM. For `CN(C(=O)COC(=O)c1sc2ccccc2c1Cl)C1CCCCC1`, in that order: 9.63 µM and 14.2 µM.

`O=c1c(C=Nc2ccc(Oc3ccccc3)cc2)c[nH]n1-c1cccc(Cl)n1`: the concentration for half-maximal inhibition (IC50) is 23.3 µM and the 90% effect concentration (IC90) was over 100 µM. For `Cc1csc(NC(=S)Nc2cccc(Cl)c2)n1`, in that order: 4.42 µM and 6.91 µM. In the same order, the values of `Cc1ccn2c(NC3CCCCC3)c(-c3cccc(-c4cccc(Cl)c4)c3)nc2c1` are 26.4 µM and 36.3 µM.

Regarding `Cc1ccc2nc(/N=C(\N)NC(=O)NC3CCCCC3)nc(C)c2c1`, the IC50 was 6.71 µM and the IC90 is 16.6 µM.

Consider `COc1ccccc1N1CCN(/N=C/C(Cl)=C/c2ccccc2)CC1`, for which the IC50 is 89.6 µM and the IC90 was over 100 µM.

In the case of `Cc1ccc(-n2c(Cl)c(Cl)nc(Cl)c2=O)cc1`, the IC50 is 16.3 µM and the IC90 was 24.8 µM. Regarding `O=[N+]([O-])c1c(C(Cl)Cl)nn(-c2ccc(Cl)cc2)c1N1CCCCC1`, the IC50 is 21.2 µM and the IC90 is 23.3 µM. In the same order, the values of `COC(=O)C1=C(C)N(Cc2ccccc2)C(=NCc2cccc(Cl)c2)N[C@H]1c1ccccc1` are 20.4 µM and 26.6 µM. Take `c1ccc(/N=C2\N=C(Nc3ccccn3)c3ccccc32)nc1`: the concentration for half-maximal inhibition (IC50) was 2.05 µM and the 90% effect concentration (IC90) is 3.02 µM. On to `CCCn1nnnc1NC(=O)c1ccc(C)cc1Cl`, for which the IC50 is 16.1 µM and the IC90 was found to be 33.1 µM.

With `Cc1cc(C)n(-c2nc(Nc3ccccc3C(F)(F)F)nc(-n3nc(C)cc3C)n2)n1`, the IC50 was 1.3 µM and the IC90 was found to be 2.01 µM.

On to `CC/C(=C(\c1ccc(O)cc1)c1ccc(OCCN(C)C)cc1)c1ccccc1`, for which the concentration for half-maximal inhibition (IC50) is 26.5 µM and the IC90 is 45 µM.

Take `O=C(COc1cccc(Oc2ccccc2)c1)Nc1ncccn1`: the 50% inhibitory concentration (IC50) is 50.4 µM and the IC90 is over 100 µM. With `Cc1cnc(NC(=O)NCC2CCCC(CNC(=O)Nc3ncc(C)s3)C2)s1` (centres undefined), the IC50 was 36.2 µM and the IC90 is over 50 µM. In the same order, the values of `CCN(CC)c1ccc2nc3ccccc3[n+](CC)c2c1` are 3.23 µM and 5.55 µM. As for `Cc1cccc2c1-c1sc(C(=O)Nc3ccccc3N3CCN(C)CC3)cc1CO2`, the IC50 is 24.1 µM and the IC90 worked out at 27.6 µM. For `CCCCOC(=O)NS(=O)(=O)c1sc(CC(C)C)cc1-c1ccc(Cn2c(CC)nc3c(C)cc(C)nc32)cc1`, in that order: 30.7 µM and 47.2 µM. As for `Cc1ccnc(Sc2ccc([N+](=O)[O-])cc2[N+](=O)[O-])n1`, the half-inhibitory concentration (IC50) is 19.8 µM and the IC90 amounted to 29.7 µM. For `CN(C)C1(CNC(=O)Nc2ccc(Cl)c(Cl)c2)CCCCC1`, in that order: 11.8 µM and 13.1 µM. In the same order, the values of `c1ccc(-c2n[nH]c(-c3ccccn3)n2)cc1` are 20.5 µM and 27.5 µM.

In the case of `COc1ccccc1-c1cc(C(=O)NC2CCN(C)CC2)c2ccc(Cl)c(C)c2n1`, the 50% inhibitory concentration (IC50) was 83.5 µM and the IC90 is over 100 µM. For `Clc1ccc(Nc2ccc(-n3ccnc3)nn2)cc1Cl`, in that order: 21.9 µM and 24.8 µM. Turning to `COc1ccc(/C=N/OCC(=O)OCC(=O)N(C)c2ccccc2)cc1`, the IC50 is 25.9 µM and the IC90 was found to be 51.8 µM.

Regarding `O=C(Nc1ccn(Cc2ccccc2F)n1)c1ccc(COc2ccccc2Cl)cc1`, the half-inhibitory concentration (IC50) is 11.2 µM and the IC90 was determined as 16.1 µM. Turning to `Cc1ccc(/C=C(\NC(=O)c2ccc(C)cc2)c2nc(=S)[nH][nH]2)cc1`, the IC50 is 45.6 µM and the IC90 stood at 49.5 µM.

As for `CC1(C)c2[nH]c3ccccc3c2C[C@@H]2C(=O)N(Cc3ccccc3F)C(=O)N21`, the IC50 is 49.3 µM and the IC90 is over 50 µM. For the molecule `Cc1cc2cc(CNC(=O)NC3CCCCC3)ccc2[nH]1`, the concentration for half-maximal inhibition (IC50) is 36 µM and the IC90 came out at 53.7 µM. In the same order, the values of `CCc1ccc(NC2=NCC(c3ccccc3)S2)cc1` (centres undefined) are 8.96 µM and 16.7 µM. Consider `CCOC(=O)N/N=C(/C)c1ccc([N+](=O)[O-])o1`, for which the IC50 was 43.1 µM and the IC90 is over 100 µM.
